Laboratory results taken from patent publication US20150141439A1, “PHARMACEUTICAL COMPOSITION FOR THE PREVENTION OR TREATMENT OF BRAIN TUMOR OR TEMODAL RESISTANT GLIOBLASTOMA MULTIFORM COMPRISING AZATHIOPRINE AS AN ACTIVE INGREDIENT” (KOREA RESEARCH INSTITUTE OF CHEMICAL TECHNOLOGY, priority 2012, published 2015).

Assays:
[1] = system: GBM #1 glioblastoma multiform patient originated cells; assay: Neurosphere formation inhibition, GBM #1; type: cell-based, human; set-up: key to inhibition of neurosphere formation: S: strong effect; I: intermediate effect; R: rare effect
Procedure: Particularly, to investigate neurosphere formation, glioblastoma multiform cells were cultured for a certain time and the cells were distributed again in culture vessels, followed by additional culture. Then, the number of newly generated neurospheres was measured. First, the glioblastoma multiform patient originated cells were sub-cultured, which were distributed in a 96-well plate (20, 50, and 200 cells in 50 μl of culture medium/well). 2, 6, and 20 μM of the compound of formula 1 (azathioprine) and the compound of Comparative Example 1 (Temodal) were treated thereto by 50 μl per well to make the final concentrations of 1, 3, and 10 μM. Then, the compound of formula 1 (azathioprine) and the compound of Comparative Example 1 (Temodal) were added to 50 μl of cell culture medium with the same concentrations as the above once a week, which were then cultured for 7˜23 days. When neurosphere was formed at least 50 μm in the control group not treated with the compound, the number of neurospheres in each well was counted to compare the neurosphere formation before and after the treatment of the compound of formula 1 (azathioprine) and the compound of Comparative Example 1 (Temodal).
The glioblastoma multiform cells used in this experiment were classified into 4 types, which are type A, type B, type C, and type D, according to the gene expression pattern. Methylation of MGMT (O6-me-G methyltransferase), the DNA repair protein, was confirmed in each cell line. At that time, type A [GBM #1, #2, #3] was proneural subtype, type B [GBM #4, #5, #6, #7] was classical subtype, type C [GBM #8] was mesenchymal subtype, and type D [GBM #9, #10] was non-classified glioblastoma multiform.

[2] = system: cells of lung cancer with brain metastasis transplanted in the mouse brain; assay: Animal test with cells of lung cancer with brain metastasis, survival; type: in vivo; conditions: azathioprine 2 mg/kg oral every day after day 11, Temodal (TMZ) 65 mg/kg oral 5 days from day 17
Procedure: The cells of lung cancer with brain metastasis were obtained from Samsung Hospital (Seoul) and cultured. The cultured cells (2×10^5/5 μl) were transplanted in the mouse brain. 17 days later, Temodal administration (65 mg/kg, oral administration) began, which continued for 5 days. The compound of formula 1 of the present invention (azathioprine) was co-treated to the mouse by oral-administration at the dose of 2 mg/kg every day after 11 days from the transplantation of the cells of lung cancer with brain metastasis in the mouse brain. Then, the average survival period was investigated.

[3] = system: Hela Human adenocarcinoma; assay: Secondary cytotoxicity test, Hela; type: cell-based
Procedure: (§1) Particularly, the cell growth inhibition effect was measured by WST-1 cell proliferation assay [http://www.roche-applied-science.com/PROD_INF/MANUALS/CELL_MAN/apoptosis—087—088.pdf]. The compound of formula 1 was loaded in a 384-well cell culture plate. Three types of glioblastoma multiform cell lines [proneural subtype (559T), mesenchymal subtype (592T), and classical subtype (626T)], normal human astrocytes (NHA), a lung cancer cell line (A549), and a glioblastoma multiform cell line (U87MG) were distributed in the plate at the density of 4.5×10^3 cells/well, and the medium was filled up to make 50 μl per well. At this time, the concentration of the solvent DMSO for the compound of formula 1 was no more than 0.2%. After culturing the cells for 72 hours, 5 mg/ml of WST-1 reagent was added by 5 μl per well, followed by reaction for 3˜4 hours. Then OD450 was measured to investigate the effect of the compound of formula 1 on cell proliferation.
(§2) To investigate the cell growth inhibition effect of the compound of formula 1 of the present invention (azathioprine) in many different cell lines, secondary cytotoxicity test was performed with the cell lines listed in Table 5 by the same manner as described in Example 1.

[4] = system: CCD986SK Human fibroblast; assay: Secondary cytotoxicity test, CCD986SK; type: cell-based; conditions: CCD-986Sk
Procedure: as §1, §2

HaCat Human keratinocyte = assay: Secondary cytotoxicity test, HaCat; type: cell-based
Procedure: as §1, §2

[5] = system: glioblastoma multiform cells transplanted in the brain of a mouse; assay: Glioblastoma multiform orthotopic animal model, survival; type: in vivo
Procedure: Following experiment was performed to investigate the radiosensitizing effect and chemosensitizing effect of the compound of formula 1 (azathioprine) in the glioblastoma multiform orthotopic animal model.
Particularly, to investigate the resistance against Temodal or radiotherapy in glioblastoma multiform, glioblastoma multiform cells were cultured. The cultured cells (2×10^5/5 μl) were transplanted in the brain of a mouse. 17 days later, the administration of Temodal (65 mg/kg, oral-administration) or radiotherapy (2 Gy) began, which continued for 5 days. The average survival period was investigated. […] For the comparison, the survival period of the group treated with “Avastin”, the well-known anticancer agent, is also presented.
Glioblastoma multiform, glioblastoma multiform cells were cultured. The cultured cells (2×10^5/5 μl) were transplanted in the brain of a mouse. 17 days later, the administration of Temodal (65 mg/kg, oral-administration) or radiotherapy (2 Gy) began, which continued for 5 days. Unlike the above experiment, the compound of formula 1 of the present invention (azathioprine) was co-treated to the mouse by oral-administration at the dose of 20 mg/kg every day after 11 days from the glioblastoma multiform transplantation in the mouse brain. Then, the average survival period was investigated.

[6] = system: proneural subtype glioblastoma multiform (559T); assay: cells; conditions: Homo sapiens, 72 h
Procedure: as §1

[7] = system: mesenchymal subtype glioblastoma multiform (592T); assay: cells; conditions: Homo sapiens, 72 h
Procedure: as §1

[8] = system: lung cancer cell line (A549); assay: cells; conditions: Homo sapiens, A549, 72 h
Procedure: as §1

[9] = system: HepG2 Human hepatocarcinoma; assay: Secondary cytotoxicity test, HepG2; type: cell-based
Procedure: as §1, §2

[10] = system: U2932 Human DLBCL (Diffuse large B-cell lymphoma); assay: Secondary cytotoxicity test, U2932; type: cell-based
Procedure: as §1, §2

[11] = read-out: Cell Growth Inhibition (% Inhibition)

In the case of `Cn1cnc([N+](=O)[O-])c1Sc1ncnc2nc[nH]c12` [Azathioprine, 6-(1-methyl-4-nitro-1H-imidazol-5-ylthio)-7H-purine], the “inhibition of neurosphere formation” value ([1]; GBM #1, type A (proneural), Azathioprine 1 μM, duration 7 day) is reported as “R”, the neurosphere formation ([1]; GBM#1, azathioprine raised to 10 μM) is reported as “significantly inhibited” and the “Average Survival Period” value [2] is reported as 63 days. The “Survival Period Extension Rate (%)” value [2] was 59-70%, the IC50 [3] was 2.9 µM and the IC50 [4] was greater than 10 µM. The IC50 (HaCat Human keratinocyte) was 6.3 µM, the “Average Survival Period” value ([5]; radiotherapy (2 Gy) 5 days from day 17 + azathioprine 20 mg/kg oral every day after day 11, control 28 days) was 41 days and the “Survival Period Extension Rate (%)” value ([5]; radiotherapy (2 Gy) 5 days from day 17 + azathioprine 20 mg/kg oral every day after day 11, vs. control) was 44%. The GI50 [6] was 1.3 µM, the inhibition at 0.032 µM [6, 11] was -4.2% and the inhibition at 0.1 µM [6, 11] was 2.6%. It also gave an inhibition at 0.32 µM [6, 11] of 9.7%, an inhibition at 1 µM [6, 11] of 35.9% and an inhibition at 3.2 µM [6, 11] of 65.8%. For the same compound, the inhibition at 10 µM [6, 11] was 78.6%, the GI50 [7] was 5.5 µM and the inhibition at 0.032 µM [7, 11] was -3.9%. For the same compound, the inhibition at 0.1 µM [7, 11] was 2.1%, the inhibition at 0.32 µM [7, 11] was 8.3% and the inhibition at 1 µM [7, 11] was 22.6%. It also gave an inhibition at 3.2 µM [7, 11] of 46%, an inhibition at 10 µM [7, 11] of 57.2% and a GI50 [8] greater than 10 µM. It also gave an inhibition at 0.032 µM [8, 11] of 6.7%, an inhibition at 0.1 µM [8, 11] of 15.3% and an inhibition at 0.32 µM [8, 11] of 21.5%. For the same compound, the inhibition at 1 µM [8, 11] was 24.2%, the inhibition at 3.2 µM [8, 11] was 26% and the inhibition at 10 µM [8, 11] was 32%. The IC50 [9] was greater than 10 µM and the IC50 [10] was 4.2 µM.
